Key:
[1] = Surface tension of droplet (pendant drop, drop-shape analyzer); format: physicochemical; settings: 100 mg/mL in water
Experimental: Surface Adhesion Properties. The contact angle (θc) of the complexation solution on the wheat leaf surface and the surface tension at the liquid-vapor interface (γLV) were measured using a KRUSS (Model: DSA1005, Serial: 30009734, Germany) drop-shape analyzer. The wheat leaf was taped on the sample stage to prepare a flat and level surface for the measurement. […] KRUSS software tracked the surface of the droplet with respect to the leaf surface baseline and calculated the contact angle (θC). Surface tension γLv of the droplet (largest droplet formation at syringe nozzle just before dripping from the nozzle) was measured using a KRUSS drop shape analyzer (pendant needle was used, diameter 1.8 mm). The solid-liquid adhesion energy per unit area (δWSLV) of the droplet was calculated using the following Young-Dupré equation (1): […]

[2] = test system: wheat leaf surface; assay: Contact angle and solid-liquid adhesion energy on wheat leaf surface; format: physicochemical; settings: 100 mg/mL
Experimental: Surface Adhesion Properties. The contact angle (θc) of the complexation solution on the wheat leaf surface and the surface tension at the liquid-vapor interface (γLV) were measured using a KRUSS (Model: DSA1005, Serial: 30009734, Germany) drop-shape analyzer. The wheat leaf was taped on the sample stage to prepare a flat and level surface for the measurement. […] KRUSS software tracked the surface of the droplet with respect to the leaf surface baseline and calculated the contact angle (θC). Surface tension γLv of the droplet (largest droplet formation at syringe nozzle just before dripping from the nozzle) was measured using a KRUSS drop shape analyzer (pendant needle was used, diameter 1.8 mm). The solid-liquid adhesion energy per unit area (δWSLV) of the droplet was calculated using the following Young-Dupré equation (1): [formula]

SMILES: O.O.O.O.O.O=S(=O)([O-])[O-].[Cu+2] [CuSO4, copper (II) sulfate pentahydrate]
- surface tension [1]: 57.46 mM/m
- contact angle [2]: 125.2 °
- surface adhesion energy ([2]; Young-Dupré equation): 24.17 mM/m

Source: patent publication US20250386827A1, “PESTICIDES WITH METAL NANOPARTICLE AND CELLULOSIC NANOMATERIAL COMPLEX” (NDSU Research Foundation, priority 2024, published 2025)
